Tests used:
male Wistar rats [1] = test: Glucose tolerance test (sucrose or starch) in rats after plant extract combinations I-III (Example 2); assay type: in vivo, rat
Procedure: Each study group consisted of 10 rats. Rats were kept in individual cages in a ventilated at a constant temperature of about 22° C., controlled relative humidity of about 60% and appropriate lighting (day/night, 12/12 hours). During the experimental period, rats were fed the standard laboratory rodent mix. Rats were deprived of food 12 hours prior to the first measurement of blood glucose levels, while constant access to water was maintained. On the day of the experiment, rats were weighed and fasting blood glucose measurements were taken, via a scalpel incision at the tip of the tail. Next, rats were administered water (negative control), acarbose (positive control) or aqueous solutions of pre-defined combinations of plant extracts, as follows: • acarbose preparation: 35 mg per 1 kg body weight • combination I: white mulberry extract (120 mg per 1 kg body weight)+ bean extract (100 mg per 1 kg body weight)+ green coffee extract (20 mg per 1 kg body weight). • combination II: white mulberry extract (120 mg per 1 kg body weight)+ green coffee extract (20 mg per 1 kg body weight)+ arabinose preparation (25 mg per 1 kg body weight). • combination III: white mulberry extract (120 mg per 1 kg body weight)+ bean extract (100 mg per 1 kg body weight)+ green coffee extract (20 mg per 1 kg body weight)+ arabinose preparation (25 mg per 1 kg body weight). The solutions of the extracts were prepared so that the volume of liquid administered to an animal weighing 350 g was 1 mL. Water was administered to the control group in a similar manner. […] Statistical analysis using Student's t-test was performed for proper interpretation of results. Each result obtained for a particular product was compared to the analogous result obtained in the negative control (water) group. Results are presented in Table 2, below and in FIGS. 5A-5B.

male Wistar rats [2] = test: Glucose tolerance test in rats after single plant extracts (Example 1); assay type: in vivo, rat
Procedure: An experiment was conducted on 96 male Wistar rats with mean body weight of 381.2±16.6 g, bred at […] in Olsztyn. Each study group consisted of 12 rats. The animals were kept in individual cages in a ventilated room at a constant temperature of about 22° C., controlled relative humidity of about 60% and appropriate lighting (day/night, 12/12 hours). During the experimental period, the animals were fed a standard laboratory rodent mix. Rats were deprived of food 12 hours prior to the first measurement of blood glucose levels, while constant access to water was maintained. On the day of the experiment, the rats were weighed and fasting blood glucose measurements were taken, via a scalpel incision at the tip of the tail. Next, the animals received aqueous solutions of plant extracts, Acarbose, which served as a positive control (PC) or water, which served as a negative control (NC) at pre-defined quantities via a gastric tube. All the plant extracts were provided by […] Investment in a solution form, and were administered according to the following doses: • white mulberry extract (mulberry): 120 mg per 1 kg body weight • bean extract: 100 mg per 1 kg body weight • green coffee extract (coffee): 20 mg per 1 kg body weight • bitter melon extract (melon): 150 mg per 1 kg body weight • pomelo extract: 100 mg per 1 kg body weight • acarbose preparation: 35 mg per 1 kg body weight • arabinose preparation: 25 mg per 1 kg body weight The extract solutions were prepared so as the amount of liquid administered to a sample animal weighing 350 g was 1 mL. Water was administered to the control group in the same manner/volume. […] Statistical analysis using Student's t-test was performed for proper interpretation of results. Each result obtained for a particular product was compared to the analogous result obtained in the negative control (water) group.

[3] = GLUCOSE load (50% glucose solution), 0 min (fasting)
[4] = STARCH load (40% starch solution), 0 min (fasting)
[5] = SUCROSE load (50% sucrose solution), 0 min (fasting)

`C[C@H]1O[C@H](O[C@H]2[C@H](O)[C@@H](O)[C@@H](O[C@H]3[C@H](O)[C@@H](O)C(O)O[C@@H]3CO)O[C@@H]2CO)[C@H](O)[C@@H](O)[C@@H]1N[C@H]1C=C(CO)[C@@H](O)[C@H](O)[C@H]1O` (some centres unmarked) [Acarbose] showed a blood glucose level (male Wistar rats [1]; STARCH 40% solution 2 g/kg, 0 min (fasting)) of 89.7 ± 6.09 mg/dL, a blood glucose level (male Wistar rats [1]; STARCH, 15 min) of 105.5 ± 9.74 mg/dL and a blood glucose level (male Wistar rats [1]; STARCH, 30 min) of 104.6 ± 4.24 mg/dL. The blood glucose level (male Wistar rats [1]; STARCH, 60 min) was 97.3 ± 7.18 mg/dL, the blood glucose level (male Wistar rats [1]; STARCH, 90 min) was 98.3 ± 6.09 mg/dL and the blood glucose level (male Wistar rats [1]; STARCH, 120 min) was 94.8 ± 6.01 mg/dL. The blood glucose level (male Wistar rats [1]; STARCH, 180 min) was 88.7 ± 4.87 mg/dL, the blood glucose level (male Wistar rats [1]; SUCROSE 50% solution 2 g/kg, 0 min (fasting)) was 84.7 ± 4.81 mg/dL and the blood glucose level (male Wistar rats [1]; SUCROSE, 15 min) was 112.2 ± 8.58 mg/dL. The blood glucose level (male Wistar rats [1]; SUCROSE, 30 min) was 121.1 ± 8.93 mg/dL, the blood glucose level (male Wistar rats [1]; SUCROSE, 60 min) was 116.0 ± 6.87 mg/dL and the blood glucose level (male Wistar rats [1]; SUCROSE, 90 min) was 110.2 ± 6.51 mg/dL. For the same compound, the blood glucose level (male Wistar rats [1]; SUCROSE, 120 min) was 109.0 ± 4.66 mg/dL, the blood glucose level (male Wistar rats [1]; SUCROSE, 180 min) was 101.1 ± 5.34 mg/dL and the blood glucose level (male Wistar rats [2]; [3]) was 95.6 ± 6.37 mg/dL. For the same compound, the blood glucose level (male Wistar rats [2]; GLUCOSE load, 15 min) was 168.9 ± 16.33 mg/dL, the blood glucose level (male Wistar rats [2]; GLUCOSE load, 30 min) was 163.3 ± 22.35 mg/dL and the blood glucose level (male Wistar rats [2]; GLUCOSE load, 60 min) was 158.0 ± 12.91 mg/dL. The blood glucose level (male Wistar rats [2]; GLUCOSE load, 90 min) was 157.6 ± 10.20 mg/dL, the blood glucose level (male Wistar rats [2]; GLUCOSE load, 120 min) was 137.7 ± 10.07 mg/dL and the blood glucose level (male Wistar rats [2]; GLUCOSE load, 180 min) was 106.8 ± 8.59 mg/dL. It also gave a blood glucose level (male Wistar rats [2]; [4]) of 93.5 ± 6.36 mg/dL, a blood glucose level (male Wistar rats [2]; STARCH load, 15 min) of 120.0 ± 14.97 mg/dL and a blood glucose level (male Wistar rats [2]; STARCH load, 30 min) of 114.9 ± 14.48 mg/dL. The blood glucose level (male Wistar rats [2]; STARCH load, 60 min) was 100.1 ± 7.28 mg/dL, the blood glucose level (male Wistar rats [2]; STARCH load, 90 min) was 95.5 ± 6.17 mg/dL and the blood glucose level (male Wistar rats [2]; STARCH load, 120 min) was 94.6 ± 6.02 mg/dL. For the same compound, the blood glucose level (male Wistar rats [2]; STARCH load, 180 min) was 90.0 ± 7.03 mg/dL, the blood glucose level (male Wistar rats [2]; [5]) was 94.2 ± 7.43 mg/dL and the blood glucose level (male Wistar rats [2]; SUCROSE load, 15 min) was 120.0 ± 15.80 mg/dL. It also gave a blood glucose level (male Wistar rats [2]; SUCROSE load, 30 min) of 114.9 ± 14.48 mg/dL, a blood glucose level (male Wistar rats [2]; SUCROSE load, 60 min) of 100.1 ± 7.28 mg/dL and a blood glucose level (male Wistar rats [2]; SUCROSE load, 90 min) of 95.5 ± 6.17 mg/dL. For the same compound, the blood glucose level (male Wistar rats [2]; SUCROSE load, 120 min) was 94.6 ± 6.02 mg/dL and the blood glucose level (male Wistar rats [2]; SUCROSE load, 180 min) was 90.0 ± 6.21 mg/dL.

Work on `O=C[C@H](O)[C@@H](O)[C@@H](O)CO` [Arabinose, L-Arabinose] yielded a blood glucose level (male Wistar rats [2]; [3]) of 96.0 ± 3.62 mg/dL, a blood glucose level (male Wistar rats [2]; GLUCOSE load, 15 min) of 170.9 ± 19.55 mg/dL and a blood glucose level (male Wistar rats [2]; GLUCOSE load, 30 min) of 157.1 ± 20.27 mg/dL. It also gave a blood glucose level (male Wistar rats [2]; GLUCOSE load, 60 min) of 148.2 ± 18.33 mg/dL, a blood glucose level (male Wistar rats [2]; GLUCOSE load, 90 min) of 152.2 ± 11.19 mg/dL and a blood glucose level (male Wistar rats [2]; GLUCOSE load, 120 min) of 137.0 ± 8.96 mg/dL. For the same compound, the blood glucose level (male Wistar rats [2]; GLUCOSE load, 180 min) was 111.6 ± 14.42 mg/dL, the blood glucose level (male Wistar rats [2]; [4]) was 90.9 ± 5.92 mg/dL and the blood glucose level (male Wistar rats [2]; STARCH load, 15 min) was 116.3 ± 8.88 mg/dL. The blood glucose level (male Wistar rats [2]; STARCH load, 30 min) was 123.5 ± 12.49 mg/dL, the blood glucose level (male Wistar rats [2]; STARCH load, 60 min) was 110.9 ± 7.28 mg/dL and the blood glucose level (male Wistar rats [2]; STARCH load, 90 min) was 111.5 ± 4.19 mg/dL. For the same compound, the blood glucose level (male Wistar rats [2]; STARCH load, 120 min) was 106.3 ± 6.54 mg/dL, the blood glucose level (male Wistar rats [2]; STARCH load, 180 min) was 100.1 ± 6.33 mg/dL and the blood glucose level (male Wistar rats [2]; [5]) was 94.7 ± 7.31 mg/dL. It also gave a blood glucose level (male Wistar rats [2]; SUCROSE load, 15 min) of 135.4 ± 14.68 mg/dL, a blood glucose level (male Wistar rats [2]; SUCROSE load, 30 min) of 132.9 ± 15.65 mg/dL and a blood glucose level (male Wistar rats [2]; SUCROSE load, 60 min) of 132.9 ± 9.06 mg/dL. The blood glucose level (male Wistar rats [2]; SUCROSE load, 90 min) was 131.7 ± 7.55 mg/dL, the blood glucose level (male Wistar rats [2]; SUCROSE load, 120 min) was 125.4 ± 6.52 mg/dL and the blood glucose level (male Wistar rats [2]; SUCROSE load, 180 min) was 123.0 ± 7.25 mg/dL.

Source: patent US11071767B2, “Dietary compositions for reducing blood glucose levels and for weight management” (MARMAR INVESTMENT SP. Z O.O., priority 2014, dated 2021)
